Assay results reported in patent US9561228B2 (Celgene Avilomics Research, Inc., priority 2013, dated 2017).

Experiments:
[1] = tested on: ERK1/2 phosphorylation of p90RSK in HT29 cells; assay: pRSK MSD Assay in HT29 cells; format: cell-based; conditions: Homo sapiens, HT-29, read-out: ERK1/ERK2 PRSK MSD HT29 EC50
Procedure, shortened: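 Phospho-RSK level, read by electrochemiluminescence on RSK-antibody-coated MSD plates with a phospho-RSK/Sulfo-tag detection pair, reports cellular ERK1/2 activity. HT29 cells, kept overnight in 0.1% FBS medium, were exposed to compound for 120 min at 37° C before lysis.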

[2] = tested on: ERK1/2 phosphorylation of p90RSK in HCT116 cells; assay: Detection of total and phospho-RSK by MSD ELISA (HCT116); format: cell-based; conditions: Homo sapiens, HCT-116, read-out: ERK1/ERK2 PRSK HCT116 EC50
Procedure, shortened: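 ERK1/2 activity read in cells as p90RSK phosphorylation: lysates from HCT116 cells given compound for 2 h at 37° C were captured on MSD plates. Detection used a pSer380 RSK or a total RSK antibody with SulfoTag secondaries.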

Compound	EC50 [1] [nM]	EC50 [2] [nM]
C=CC(=O)Nc1cc(C)ccc1Nc1nc(Nc2cc(C(N)=O)nn2C)ncc1C(F)(F)F [Compound I-423, 5-((4-((2-acrylamido-4-methylphenyl)amino)-5-(trifluoromethyl)pyrimidin-2-yl)amino)-1-methyl-1H-pyrazole-3-carboxamide]	> 1000	> 1000
C=CC(=O)Nc1cc(C)ccc1Nc1nc(Nc2cc(C(=O)NC)nn2C)ncc1C(F)(F)F [Compound I-424, 5-((4-((2-acrylamido-4-methylphenyl)amino)-5-(trifluoromethyl)pyrimidin-2-yl)amino)-N,1-dimethyl-1H-pyrazole-3-carboxamide]	101 to 500	101 to 500
C=CC(=O)Nc1cc(O[C@@H](C)C(=O)N2CCN(C(C)=O)CC2)ccc1Nc1nc(Nc2cc(OC)ncc2C)ncc1C(F)(F)F [Compound I-425, (S)—N-(5-((1-(4-acetylpiperazin-1-yl)-1-oxopropan-2-yl)oxy)-2-((2-((2-methoxy-5-methylpyridin-4-yl)amino)-5-(trifluoromethyl)pyrimidin-4-yl)amino)phenyl)acrylamide]	101 to 500	501 to 999
C=CC(=O)Nc1cc(O[C@@H](C)C(=O)N2CCN(S(C)(=O)=O)CC2)ccc1Nc1nc(Nc2cc(OC)ncc2C)ncc1C(F)(F)F [Compound I-426, (S)—N-(2-((2-((2-methoxy-5-methylpyridin-4-yl)amino)-5-(trifluoromethyl)pyrimidin-4-yl)amino)-5-((1-(4-(methylsulfonyl)piperazin-1-yl)-1-oxopropan-2-yl)oxy)phenyl)acrylamide]	< 100	101 to 500
C=CC(=O)Nc1cc(CCc2cnn(C)c2)ccc1Nc1nc(Nc2cc(OC)ncc2C)ncc1C(F)(F)F [Compound I-427, N-(2-((2-((2-methoxy-5-methylpyridin-4-yl)amino)-5-(trifluoromethyl)pyrimidin-4-yl)amino)-5-(2-(1-methyl-1H-pyrazol-4-yl)ethyl)phenyl)acrylamide]	101 to 500	501 to 999
C=CC(=O)Nc1cc(C)ccc1Nc1nc(Nc2cc(OC)ncc2C(F)F)ncc1C(F)(F)F [Compound I-431, N-(2-((2-((5-(difluoromethyl)-2-methoxypyridin-4-yl)amino)-5-(trifluoromethyl)pyrimidin-4-yl)amino)-5-methylphenyl)acrylamide]	101 to 500	501 to 999
